In patent US4202892A, “Biocidal methyladamantyl hydrazines and pharmaceutical compositions containing them” (Teva Pharmaceutical Industries, Ltd., priority 1977, dated 1980):
Values joined by “and” are separate entries in the source; they are usually repeats but may differ in a detail not shown here. Equal values may be shown once. Where a name gives a salt, the structure may show the parent alone.

Columns and labels:
[1] = tested on: stereotyped behaviour (sniffing, biting, repetitive head movement); assay: Stereotyped behaviour in mice; format: in vivo, Male ICR albino mice; design: stereotyped behaviour score / Total Score (stereotyped behaviour) / Mean Score (stereotyped behaviour): scale not given here; details: for Total Score (stereotyped behaviour): 0-240 min; for Total Score (stereotyped behaviour) / stereotyped behaviour score / Mean Score (stereotyped behaviour): 50 mg/kg i.p.; for Total Score (stereotyped behaviour) / stereotyped behaviour score: one line per mouse, in order Mouse 1 to Mouse 4; for Mean Score (stereotyped behaviour): mean of 4 mice
Protocol: Male ICR albino mice weighing 25-30 g were put in cages with a metal grid floor, 4 in each cage. Drugs were injected intraperitoneally and stereotyped behaviour (sniffing, biting, repetitive head movement) was evaluated every 30 min.

[2] = tested on: haloperidol-induced catalepsy; assay: Antiparkinson activity: anticataleptic effect in rats (haloperidol catalepsy); format: in vivo, Male Charles River albino rats; details: individual rats, 80 mg/kg i.p., one line per rat
Protocol: (§1) Male Charles River albino rats, weighing 200-250 g, were used. Catalepsy was produced by haloperidol, 5 mg/kg i.p. The animals were placed with their front paws on a horizontal bar, about 10 cm above the ground, and animals were considered cataleptic if not changing posture for at least 30 sec. Cataleptic animals were injected l.p. with one of the drugs at a dose of 40-80 mg/kg. Catalepsy was estimated again at the intervals indicated.
as §1, with “rats, wighing” for “rats, weighing”, “injected i.p.” for “injected l.p.”, “mg/kg. catalepsy” for “mg/kg. Catalepsy”

[3] = Toxic limit in the HSV replication test; format: cell-based, Green monkey; details: monkey, bsc-1 cells; read-out: T.L. Toxic Limit (highest concentration of compound which is completely not toxic)
Excerpt: BSC-1 (Green monkey Kidney)
*T.L. The highest concentration of compound which is completely not toxic

[4] = tested on: 4 mycoplasma (M. gallisepticum, capricolum, M. hominis, A. laidlawii); assay: organism not typed; format: cell-based; details: read-out: 50% inhibition of growth in liquid medium, concentration
HSV-1 (Herpes Simplex) = assay: Inhibition test on HSV replication; format: cell-based; details: Human alphaherpesvirus 1, BSC-1 cells, 10 PFU/cell; for inhibition at 25 µg/mL: 25 μg/ml; for inhibition at 50 µg/mL: 50 μg/ml; for inhibition at 100 µg/mL: 100 μg/ml
Excerpt: |INHIBITION TEST ON HSV REPLICATION |Cells |BSC-1 (Green monkey Kidney) |Virus |HSV-1 (Herpes Simplex) |Inoculum |10 PFU/cell |Medium |DMEM + 10% C.S. | Herpes | J. Levitt & Y. Becker | Virology 31, 129-134 (1967) | **% Inhibition of control infected for some time with same virus PFV with | no inhibition.

[5] = tested on: Trichophyton mentagrophytes; assay: Antimycotic activity (human), growth on Sabouraud dextrose agar; design: key to the marks not given beside the values; details: 10 μg/ml
Candida albicans = assay: as above; format: cell-based; design: key to the marks not given beside the values
Excerpt: Control (full growth): ++++

Trichophyton rubrum = assay: as above; design: key to the marks not given beside the values; details: 10 μg/ml
L. tropica promastigotes = L. tropica promastigotes in Mc Coy's medium in vitro at 27° C.; format: cell-based
Protocol: (§2) A. Scoring of drug activity:
(§3) b. promastigotes in Mc Coy's medium in vitro at 27° C.
+++=no viable parasites after 24 hours
++=no viable parasites after 48 hours
+=no viable parasites after 72 hours
±=no viable parasites after 96 hours
-=viable parasites after 120 hours.

Trypanosoma = Trypanosoma in RPMI medium in vitro at 37° C.; format: cell-based; details: for Trypanosoma in vitro, activity score: RPMI medium, 37° C.; for active against Trypanosoma: summary
Protocol: Trypanosoma in RPMI medium in vitro at 37° C. Scoring as in b.

Leishmania = assay: Anti Leishmania tests (amastigotes and promastigotes), summary; format: cell-based, L. tropica
Protocol: as §2
(§4) a. amastigotes in peritoneal exudate cells in Mc Coy's medium in vitro at 37° C.
as §3

L. tropica amastigotes = L. tropica amastigotes in peritoneal exudate cells in Mc Coy's medium in vitro at 37° C.; format: cell-based
Protocol: as §2, §4
+++=clearance of all parasites in 24 hrs
++=clearance of all parasites in 48 hrs
+=clearance of all parasites in 72 hrs
±=partial clearance of parasites in 72 hours or more
-=no activity against parasites.

NC12CC3CC(CC(C3)C1)C2 [Symmetrel, reference compound]
Total Score (stereotyped behaviour) ([1]; 50 mg/kg): 17 (3×) and 13 | stereotyped behaviour score ([1]; 0 min): 0 | stereotyped behaviour score ([1]; 30 min): 1 | stereotyped behaviour score ([1]; 45 min): 1 | stereotyped behaviour score ([1]; 60 min, 50 mg/kg): 2 (2×) and 1 (2×) | stereotyped behaviour score ([1]; 90 min, 50 mg/kg): 1 (3×) and 2 | stereotyped behaviour score ([1]; 120 min): 2 | stereotyped behaviour score ([1]; 135 min): 2 | stereotyped behaviour score ([1]; 150 min): 2 | stereotyped behaviour score ([1]; 180 min): 2 | stereotyped behaviour score ([1]; 210 min, 50 mg/kg): 2 (3×) and 1 | stereotyped behaviour score ([1]; 240 min, 50 mg/kg): 2 (3×) and 0 | Mean Score (stereotyped behaviour) [1]: 16 | anticataleptic effect ([2]; in order rat 1 to rat 5): 0/4 and 2/4 and 3/4 (3×)

C1CCN(NCC23CC4CC(CC(C4)C2)C3)C1 [Example 7, 1-(Adamant-1'-ylmethylamino)pyrrolidine hydrochloride]
Total Score (stereotyped behaviour) ([1]; hydrochloride, 50 mg/kg): 17 and 11 and 6 and 3 | stereotyped behaviour score ([1]; 0 min): 0 | stereotyped behaviour score ([1]; 30 min, hydrochloride, 50 mg/kg): 2 and 0 (3×) | stereotyped behaviour score ([1]; 45 min, hydrochloride, 50 mg/kg): 2 and 0 (2×) and 1 | stereotyped behaviour score ([1]; 60 min, hydrochloride, 50 mg/kg): 2 and 0 (3×) | stereotyped behaviour score ([1]; 90 min, hydrochloride, 50 mg/kg): 2 (2×) and 0 (2×) | stereotyped behaviour score ([1]; 120 min, hydrochloride, 50 mg/kg): 2 (2×) and 0 (2×) | stereotyped behaviour score ([1]; 135 min, hydrochloride, 50 mg/kg): 2 (2×) and 0 (2×) | stereotyped behaviour score ([1]; 150 min, hydrochloride, 50 mg/kg): 2 (2×) and 1 and 0 | stereotyped behaviour score ([1]; 180 min, hydrochloride, 50 mg/kg): 1 (3×) and 0 | stereotyped behaviour score ([1]; 210 min, hydrochloride, 50 mg/kg): 1 (2×) and 2 (2×) | stereotyped behaviour score ([1]; 240 min): 1 | Mean Score (stereotyped behaviour) [1]: 9.25 | found to be active ([1]; summary of the CNS tests): active | MNTC [3]: 50 µg/mL | IC50 [4]: 5 to 30 µg/mL | anticataleptic effect ([2]; in order rat 1 to rat 5, hydrochloride): 1/4 and 0/4 (3×) and 3/4 | inhibition at 25 µg/mL (HSV-1 (Herpes Simplex)): 72.5% | inhibition at 50 µg/mL (HSV-1 (Herpes Simplex)): 92% | inhibition at 75 µg/mL (HSV-1 (Herpes Simplex); 75 μg/ml): 98% | inhibition at 100 µg/mL (HSV-1 (Herpes Simplex)): 99.9%

CC(C)N(N)CC12CC3CC(CC(C3)C1)C2 [Example 38, 1-(Adamant-1'-ylmethyl)-1-isopropylhydrazine hydrochloride]
growth of T. mentagrophytes [5]: ++++ | growth of C. albicans (Candida albicans; 10 μg/ml): ++++ | growth of C. albicans (Candida albicans; 50 μg/ml): ++++ | growth of C. albicans (Candida albicans; 100 μg/ml): ++++ | growth of T. rubrum (Trichophyton rubrum): ++++ | IC50 [4]: 5 to 30 µg/mL

N=C(N)c1ccc(OCCCCCOc2ccc(C(=N)N)cc2)cc1 [Pentamidine, reference compound]
Leishmania promastigote, activity score (L. tropica promastigotes; 10 μg): +++ (no viable parasites after 24 hours) | Leishmania promastigote, activity score (L. tropica promastigotes; 100 μg): +++ (no viable parasites after 24 hours) | Trypanosoma in vitro, activity score (Trypanosoma; 10 μg): - (viable parasites after 120 hours.) | Trypanosoma in vitro, activity score (Trypanosoma; 100 μg): ++ (no viable parasites after 48 hours)

C1CCN(NCC23CC4CC(CC(C4)C2)C3)CC1 [Example 8, 1-(Adamant-1'-ylmethylamino)piperidine hydrochloride]
growth of T. mentagrophytes [5]: ++++ | growth of C. albicans (Candida albicans; 10 μg/ml): ++++ | growth of C. albicans (Candida albicans; 50 μg/ml): ++++ | growth of C. albicans (Candida albicans; 100 μg/ml): ++++ | growth of T. rubrum (Trichophyton rubrum): ++++ | IC50 [4]: 5 to 30 µg/mL

C1CCN(NCC2C3CC4CC(C3)CC2C4)C1 (stereo not drawn) [Example 31, 1-(Adamant-2'-ylmethylamino)pyrrolidine hydrochloride]
inhibition at 25 µg/mL (HSV-1 (Herpes Simplex)): 51% | inhibition at 50 µg/mL (HSV-1 (Herpes Simplex)): 91% | inhibition at 100 µg/mL (HSV-1 (Herpes Simplex)): 97%

NNCC12CC3CC(CC(C3)C1)C2 [Example 14, (Adamant-1-ylmethyl)hydrazine hydrochloride]
active against Leishmania (Leishmania): active | Leishmania amastigote, activity score (L. tropica amastigotes; 10 μg): ± (partial clearance of parasites in 72 hours or more) | Leishmania amastigote, activity score (L. tropica amastigotes; 100 μg): ++ (clearance of all parasites in 48 hrs) | Trypanosoma in vitro, activity score (Trypanosoma; 10 μg): +++ (no viable parasites after 24 hours) | Trypanosoma in vitro, activity score (Trypanosoma; 100 μg): +++ (no viable parasites after 24 hours) | active against Trypanosoma (Trypanosoma): active

CNNCC12CC3CC(CC(C3)C1)C2 [Example 1, 1-(Adamant-1'-ylmethyl)-2-methylhydrazine hydrochloride]
Leishmania promastigote, activity score (L. tropica promastigotes; 10 μg): - (viable parasites after 120 hours.) | Leishmania promastigote, activity score (L. tropica promastigotes; 100 μg): +++ (no viable parasites after 24 hours) | active against Leishmania (Leishmania): active | Leishmania amastigote, activity score (L. tropica amastigotes; 10 μg): ± (partial clearance of parasites in 72 hours or more) | Leishmania amastigote, activity score (L. tropica amastigotes; 100 μg): ± (partial clearance of parasites in 72 hours or more) | Trypanosoma in vitro, activity score (Trypanosoma; 10 μg): ± (no viable parasites after 96 hours) | Trypanosoma in vitro, activity score (Trypanosoma; 100 μg): +++ (no viable parasites after 24 hours) | active against Trypanosoma (Trypanosoma): active

c1ccc(CCNNCC23CC4CC(CC(C4)C2)C3)cc1 [Example 25, 1-(Adamant-1'-ylmethyl)-2-phenethylhydrazine dihydrate]
IC50 [4]: 5 to 30 µg/mL

CN(N)CC1C2CC3CC(C2)CC1C3 (stereo not drawn) [Example 16, 1-Methyl-1-(adamant-2'-ylmethyl)hydrazine hydrochloride]
growth of C. albicans (Candida albicans; 10 μg/ml): ++++ | growth of C. albicans (Candida albicans; 50 μg/ml): ++++

c1ccc(CNNCC23CC4CC(CC(C4)C2)C3)cc1 [Example 3, 1-(Adamant-1'-ylmethyl)-2-benzylhydrazine hydrochloride]
growth of C. albicans (Candida albicans; 10 μg/ml): ++++ | growth of C. albicans (Candida albicans; 50 μg/ml): ++++ | growth of C. albicans (Candida albicans; 100 μg/ml): ++++ | IC50 [4]: 5 to 30 µg/mL

CN(N)CC12CC3CC(CC(C3)C1)C2 [Example 15, 1-Methyl-1-(adamant-1'-ylmethyl)hydrazine hydrochloride hydrate]
Leishmania promastigote, activity score (L. tropica promastigotes; 10 μg): - (viable parasites after 120 hours.) | Leishmania promastigote, activity score (L. tropica promastigotes; 100 μg): +++ (no viable parasites after 24 hours) | active against Leishmania (Leishmania): active
